Key:
[1] = target: T1, IGF-1R (Homo sapiens, UniProt P08069); test: Example B-1: IGF-1R Assay (PC3 cells stimulated with IGF1, AlphaLISA on cell lysates); assay type: cell-based; details: compound two hours, IGF1 200 ng/mL for 30 min, read-out: IC50, Biological Activity against IGF-1R (Table B1)
T1 construct: expressed in transfected cells
Experimental: 50K PC3 cells were seeded on day 1 in 50 μL of media in 96-well plate and incubated overnight at 37° C., 5% CO2. On day 2, all cells were expected to be at 80-90% confluency. Cells were starved for two hours by changing the media to 90 μL of EMEM serum-free media and incubated for 2 hours. Next, cells were treated with 10 μL of 10× concentrated and 3× serially diluted compounds for two hours. It makes 1× of compounds in 100 μL media. This was followed by stimulation of cells with 11×IGF1 for 30 min in 10 μL of serum-free EMEM media at the final concentration of 200 ng/mL.
The media was removed and replaced by 50 μL of 1× lysis buffer from the AlphaLISA kit (with 1× of cOmplete™ protease inhibitor). The plates were sealed, and cells were allowed to lyse for 10 min in the shaker before storing the plate at −20° C. until used. The AlphaLISA assay with processed cell lysates were performed as described in the protocol. Briefly, 10 μL of the undiluted sample were loaded to 384 well Optiplates and 5 μL of the acceptor mix (as described in the AlphaLISA kit) was added to each well. The plates were sealed and briefly vortexed followed by the incubation at RT for 3 hours. In the dark, 5 μL of donor mix was added to each well. All plates were sealed and stored at RT overnight. The plates were read in EnVision reader using standard AlphaLISA settings.
Compound activity was analyzed using CBIS data analysis suite (Cheminnovation, CA). Percentage inhibition was calculated using the following formula: % I-hibition=100%×(1−(mea−RLU of test sample−mean RLU of vehicle control)/(mean-RLU of EC80 control−mean RLU of vehicle control)). The activity for representative examples of the invention is shown in the following table, wherein A: IC50≤500 nM; B: 500 nM<IC50≤2 μM; C: 2 μM<IC50≤10 μM; D: IC50>10 μM.

[2] = target: T1, IGF-1R; test: Example B-2: IGF-1R Assay (PathHunter cell lines, EC80 agonist challenge, chemiluminescent detection); assay type: cell-based; details: PathHunter cells, compound 60 minutes at 37° C., EC80 agonist 3 hours; read-out: IC50, Biological Activity against IGF-1R (Table B2)
Procedure, shortened: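 PathHunter cells were pre-incubated with compound for 60 min at 37° C (1% vehicle), then challenged with EC80 agonist for 3 h at room temperature. Chemiluminescent detection after 1 h gave % inhibition relative to EC80 and vehicle controls, from which IC50 was derived.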

T1 sequence (P08069 31-1367): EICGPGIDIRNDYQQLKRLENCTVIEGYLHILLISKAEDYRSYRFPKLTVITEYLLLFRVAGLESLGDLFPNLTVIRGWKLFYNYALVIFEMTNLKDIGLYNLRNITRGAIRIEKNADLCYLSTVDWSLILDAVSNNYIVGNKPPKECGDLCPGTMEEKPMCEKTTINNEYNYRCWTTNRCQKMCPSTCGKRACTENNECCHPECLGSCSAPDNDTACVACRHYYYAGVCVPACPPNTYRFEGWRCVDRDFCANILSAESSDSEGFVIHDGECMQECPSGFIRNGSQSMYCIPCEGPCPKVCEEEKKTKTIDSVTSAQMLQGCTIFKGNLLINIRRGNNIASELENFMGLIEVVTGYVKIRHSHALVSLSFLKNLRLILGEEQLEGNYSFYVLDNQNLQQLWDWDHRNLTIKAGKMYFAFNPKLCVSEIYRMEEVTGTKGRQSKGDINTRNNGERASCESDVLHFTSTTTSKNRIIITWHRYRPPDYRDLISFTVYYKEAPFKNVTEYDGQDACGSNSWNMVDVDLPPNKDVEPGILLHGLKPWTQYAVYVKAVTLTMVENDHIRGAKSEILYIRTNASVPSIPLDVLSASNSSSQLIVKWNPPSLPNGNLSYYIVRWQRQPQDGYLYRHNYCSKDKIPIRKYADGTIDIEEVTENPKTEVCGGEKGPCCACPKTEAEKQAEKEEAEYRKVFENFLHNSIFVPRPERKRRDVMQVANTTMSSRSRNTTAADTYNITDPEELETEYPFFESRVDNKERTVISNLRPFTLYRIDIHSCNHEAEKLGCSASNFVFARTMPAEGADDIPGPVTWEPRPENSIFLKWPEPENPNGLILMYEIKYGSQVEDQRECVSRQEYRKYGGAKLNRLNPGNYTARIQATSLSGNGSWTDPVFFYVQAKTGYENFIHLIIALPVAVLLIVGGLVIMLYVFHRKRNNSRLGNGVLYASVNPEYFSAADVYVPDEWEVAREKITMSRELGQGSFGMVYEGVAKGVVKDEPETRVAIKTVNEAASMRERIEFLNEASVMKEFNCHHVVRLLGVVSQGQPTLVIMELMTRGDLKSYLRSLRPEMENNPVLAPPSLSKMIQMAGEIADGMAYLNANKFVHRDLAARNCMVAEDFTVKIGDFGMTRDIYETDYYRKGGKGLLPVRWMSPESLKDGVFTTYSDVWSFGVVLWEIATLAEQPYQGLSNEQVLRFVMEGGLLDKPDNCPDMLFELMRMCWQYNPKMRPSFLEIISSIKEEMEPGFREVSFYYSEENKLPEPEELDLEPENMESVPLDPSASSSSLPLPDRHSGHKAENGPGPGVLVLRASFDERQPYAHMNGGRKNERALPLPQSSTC

Structure (SMILES)	IC50 [1]	IC50 [2]
CC1(C)C(=O)N(c2ccc(SC(F)(F)F)cc2)C(=O)N1CCc1cn[nH]c1 [Compound 400, 1-(2-(1H-pyrazol-4-yl)ethyl)-5,5-dimethyl-3-(4-((trifluoromethyl)thio)phenyl) imidazolidine-2,4-dione]	2000 to 10000 nM	
CC(C)Nc1cc(CN2C(=O)N(c3ccc(C45CC(C4)C5)cc3)C(=O)C2(C)C)ccn1 [Compound 117, 3-(4-(bicyclo[1.1.1]pentan-1-yl)phenyl)-1-((2-(isopropylamino)pyridin-4-yl)methyl)-5,5-dimethylimidazolidine-2,4-dione]	≤ 500 nM	
COC[C@H](C)Nc1cc(CN2C(=O)N(c3ccc(C(C)(C)C)cc3)C(=O)C2(C)C)ccn1 [Compound 269, (S)-3-(4-(tert-butyl)phenyl)-1-((2-((1-methoxypropan-2-yl)amino)pyridin-4-yl)methyl)-5,5-dimethylimidazolidine-2,4-dione]	≤ 500 nM	
CC(C)Nc1cc(CN2C(=O)N(c3ccc(I)cc3)C(=O)C2(C)C)ccn1 [Compound 92, 3-(4-iodophenyl)-1-((2-(isopropylamino)pyridin-4-yl)methyl)-5,5-dimethylimidazolidine-2,4-dione]	500 to 2000 nM	
CC(C)(C)c1ccc(N2C(=O)N(Cc3ccnc(NC4COC4)c3)C(C)(C)C2=O)cc1 [Compound 275, 3-(4-(tert-butyl)phenyl)-5,5-dimethyl-1-((2-(oxetan-3-ylamino)pyridin-4-yl)methyl)imidazolidine-2,4-dione]	≤ 500 nM	
COc1cc(NC(=O)Nc2cc(CN3C(=O)N(c4ccc(SC(F)(F)F)cc4)C(=O)C3(C)C)ccn2)ccc1O[C@H]1C[C@@H](N(C)C)C1 [Compound 351, 1-(4-((5,5-dimethyl-2,4-dioxo-3-(4-((trifluoromethyl)thio)phenyl)imidazolidin-1-yl)methyl)pyridin-2-yl)-3-(4-((1s,3s)-3-(dimethylamino)cyclobutoxy)-3-methoxyphenyl)urea]	≤ 500 nM	
CC(C)Nc1cc(CN2C(=O)N(c3ccc([Si](C)(C)C)cc3)C(=O)C2(C)C)ccn1 [Compound 89, 1-((2-(isopropylamino)pyridin-4-yl)methyl)-5,5-dimethyl-3-(4-(trimethylsilyl)phenyl)imidazolidine-2,4-dione]	≤ 500 nM	
CC(C)Nc1cc(CN2C(=O)N(c3ccc(C4(C)CCC4)cc3)C(=O)C2(C)C)ccn1 [Compound 101, 1-((2-(isopropylamino)pyridin-4-yl)methyl)-5,5-dimethyl-3-(4-(1-methylcyclobutyl)phenyl)imidazolidine-2,4-dione]	≤ 500 nM	
CC1(C)C(=O)N(c2ccc(SC(F)(F)F)cc2)C(=O)N1Cc1ccnc(NC(=O)C2NCC23CCCCC3)c1 (stereo not shown) [Compound 305, N-(4-((5,5-dimethyl-2,4-dioxo-3-(4-((trifluoromethyl)thio)phenyl)imidazolidin-1-yl)methyl)pyridin-2-yl)-2-azaspiro[3.5]nonane-1-carboxamide]	2000 to 10000 nM	
CN1CC2(CCC2)c2ccc(N3C(=O)N(Cc4ccnc(NC5CCOCC5)c4)C(C)(C)C3=O)cc21 [Compound 214, 5,5-dimethyl-3-(1′-methylspiro[cyclobutane-1,3′-indolin]-6′-yl)-1-((2-((tetrahydro-2H-pyran-4-yl)amino)pyridin-4-yl)methyl)imidazolidine-2,4-dione]		≤ 500 nM
C[C@H](Nc1cc(CN2C(=O)N(c3ccc(S(=O)(=O)C(F)(F)F)cc3)C(=O)C2(C)C)ccn1)[C@@H]1CCCO1 [Compound 339, 5,5-dimethyl-1-((2-(((S)-1-((S)-tetrahydrofuran-2-yl)ethyl)amino)pyridin-4-yl)methyl)-3-(4-((trifluoromethyl)sulfonyl)phenyl) imidazolidine-2,4-dione]		500 to 2000 nM
C[C@H](CC#N)Nc1cc(CN2C(=O)N(c3ccc(S(=O)(=O)C(F)(F)F)cc3)C(=O)C2(C)C)ccn1 [Compound 331, (R)-3-((4-((5,5-dimethyl-2,4-dioxo-3-(4-((trifluoromethyl)sulfonyl)phenyl)imidazolidin-1-yl)methyl)pyridin-2-yl)amino)butanenitrile]		500 to 2000 nM
CC1(C)C(=O)N(c2ccc(S(=O)(=O)C(F)(F)F)cc2)C(=O)N1Cc1ccnc(NC2CCNC(=O)C2)c1 (stereo not shown) [Compound 333, 5,5-dimethyl-1-((2-((2-oxopiperidin-4-yl)amino)pyridin-4-yl)methyl)-3-(4-((trifluoromethyl)sulfonyl)phenyl) imidazolidine-2,4-dione]		500 to 2000 nM
CN1CC(C)(C)c2ccc(N3C(=O)N(Cc4ccnc(N[C@H]5CCOC5)c4)C(C)(C)C3=O)cc21 [Compound 206, (S)-5,5-dimethyl-1-((2-((tetrahydrofuran-3-yl)amino)pyridin-4-yl)methyl)-3-(1,3,3-trimethylindolin-6-yl)imidazolidine-2,4-dione]		500 to 2000 nM
COC[C@@H](C)Nc1cc(CN2C(=O)N(c3ccc4c(c3)OCC4(C)C)C(=O)C2(C)C)ccn1 [Compound 198, (R)-3-(3,3-dimethyl-2,3-dihydrobenzofuran-6-yl)-1-((2-((1-methoxypropan-2-yl)amino)pyridin-4-yl)methyl)-5,5-dimethylimidazolidine-2,4-dione]		≤ 500 nM

Second part, the compound after the results:

IC50 [1]	IC50 [2]	Structure (SMILES)
500 to 2000 nM		CC1(C)C(=O)N(c2ccc(SC(F)(F)F)cc2)C(=O)N1Cc1ccnc(NCc2ncc[nH]2)c1 [Compound 312, 1-((2-(((1H-imidazol-2-yl)methyl)amino)pyridin-4-yl)methyl)-5,5-dimethyl-3-(4-((trifluoromethyl)thio)phenyl) imidazolidine-2,4-dione]
500 to 2000 nM		CC1(C)C(=O)N(c2ccc(SC(F)(F)F)cc2)C(=O)N1Cc1ccnc(NCC(F)(F)F)c1 [Compound 313, 5,5-dimethyl-1-((2-((2,2,2-trifluoroethyl)amino)pyridin-4-yl)methyl)-3-(4-((trifluoromethyl)thio)phenyl) imidazolidine-2,4-dione]
≤ 500 nM		CC1(C)C(=O)N(c2ccc(SC(F)(F)F)cc2)C(=O)N1Cc1ccnc(N)c1F [Compound 380, 1-((2-amino-3-fluoropyridin-4-yl)methyl)-5,5-dimethyl-3-(4-((trifluoromethyl)thio)phenyl) imidazolidine-2,4-dione]
> 10000 nM		CC1(C)Cc2cc(CN3C(=O)N(c4ccc(SC(F)(F)F)cc4)C(=O)C3(C)C)cnc2N1 [Compound 14, 1-((2,2-dimethyl-2,3-dihydro-1H-pyrrolo[2,3-b]pyridin-5-yl)methyl)-5,5-dimethyl-3-(4-((trifluoromethyl)thio)phenyl)imidazolidine-2,4-dione]
≤ 500 nM		CC1(C)C(=O)N(c2ccc(SC(F)(F)F)cc2)C(=O)N1Cc1ccnc(NC(=O)Nc2ccccc2F)c1 [Compound 375, 1-(4-((5,5-dimethyl-2,4-dioxo-3-(4-((trifluoromethyl)thio)phenyl)imidazolidin-1-yl)methyl)pyridin-2-yl)-3-(2-fluorophenyl)urea]
≤ 500 nM		CC1(C)C(=O)N(c2ccc(SC(F)(F)F)cc2)C(=O)N1Cc1ccnc(NC(=O)Nc2cccnc2)c1 [Compound 397, 1-(4-((5,5-dimethyl-2,4-dioxo-3-(4-((trifluoromethyl)thio)phenyl)imidazolidin-1-yl)methyl)pyridin-2-yl)-3-(pyridin-3-yl)urea]
≤ 500 nM		Cn1cc(CNc2cc(CN3C(=O)N(c4ccc(SC(F)(F)F)cc4)C(=O)C3(C)C)ccn2)cn1 [Compound 301, 5,5-dimethyl-1-((2-(((1-methyl-1H-pyrazol-4-yl)methyl)amino)pyridin-4-yl)methyl)-3-(4-((trifluoromethyl)thio)phenyl)imidazolidine-2,4-dione]
≤ 500 nM		CC1(C)C(=O)N(c2ccc(SC(F)(F)F)cc2)C(=O)N1Cc1ccnc(NC(=O)NC2CCN(CC(F)(F)F)CC2)c1 [Compound 307, 1-(4-((5,5-dimethyl-2,4-dioxo-3-(4-((trifluoromethyl)thio)phenyl)imidazolidin-1-yl)methyl)pyridin-2-yl)-3-(1-(2,2,2-trifluoroethyl)piperidin-4-yl)urea]
≤ 500 nM		CN1CCC(NC(=O)Nc2cc(CN3C(=O)N(c4ccc(SC(F)(F)F)cc4)C(=O)C3(C)C)ccn2)CC1 [Compound 309, 1-(4-((5,5-dimethyl-2,4-dioxo-3-(4-((trifluoromethyl)thio)phenyl)imidazolidin-1-yl)methyl)pyridin-2-yl)-3-(1-methylpiperidin-4-yl)urea]
≤ 500 nM		CC1(C)C(=O)N(c2ccc(SC(F)(F)F)cc2)C(=O)N1Cc1cc(N)ncn1 [Compound 396, 1-((6-aminopyrimidin-4-yl)methyl)-5,5-dimethyl-3-(4-((trifluoromethyl)thio)phenyl) imidazolidine-2,4-dione]
